Experimental data taken from patent publication US8278290B2, “Tubulin polymerisation inhibitors” (Biononics Limited, priority 2005, dated 2012).

Columns and labels:
MDA-MB-231 tumour = MDA-MB-231 tumour growth in mice; assay type: in vivo; conditions: 35 mg/kg/d (35 mg/kg/d for 3 days then 17.5 mg/kg/d for 3 days then none); 5 mice per group; FIG. 1
Experimental: The effect of 35 mg/kg/d CA4-P, compound entry 8, compound entry 9, compound entry 10 and compound entry 23 (administered at 35 mg/kg/d for 3 days then 17.5 mg/kg/d for 3 days then none) on MDA-MB-231 tumour growth is summarised in FIG. 1.
The effect of CA4-P and test compounds and saline on MDA-MB-231 tumour growth. Each group consisted of 5 mice. The data represent the mean tumour volume; bars SEM.

Tubulin = assay: Inhibition of tubulin polymerisation; assay type: biochemical; conditions: tubulin concentration 10 μM; extent of assembly after 20 min incubation at 30° C.; read-out: Inhib. Tubulin polymerisation IC50
MCF-7, cancer cell line = assay: MCF-7 growth inhibition (SRB or Sysmex cell counting); assay type: cell-based; conditions: SRB or CC assay
[1] = system: Human umbilical vein endothelial cells; assay: Proliferation Assay - activated endothelium (MTT); assay type: cell-based; conditions: HUVEC, range within which the IC50 value falls, 48 hrs culture, read-out: Inhib activated HUVECs IC50
Experimental: Proliferation Assay—activated endothelium: Human umbilical vein endothelial cells (CC-2519, Clonetics) were plated at 2500 cells/well in EGM2 (CC-3162, Clonetics) in a 96 well plate in triplicate. Cells were cultured overnight at 37° C. 5% CO2. Medium was subsequently replaced with fresh medium including the compound or negative control. Cells were cultured for a period of 48 hrs. An MTT assay was performed to measure changes in cell numbers. Briefly, 20 μl of MTT reagent was added to cells containing 100 μl of EGM2 and incubated at 37° C. for 2 hours. Absorbance was measured at 492 nm.

MDA-MB-231 = MDA-MB-231 growth inhibition (footnote b); assay type: cell-based; conditions: Homo sapiens; entries 59-60: cell line MDA-MB-231; range within which the IC50 value falls; read-out: cancer cell line IC50 (MDA-MB-231)
[2] = Homo sapiens, MCF7, concentration required to inhibit net cell growth by 50%
[3] = concentration required to inhibit net cell growth by 50%

IC50 (MDA-MB-231)	Structure (SMILES)	effect on MDA-MB-231 tumour growth (MDA-MB-231 tumour)	IC50 (Tubulin)	IC50 (MCF-7, cancer cell line; [2])	IC50 (MCF-7, cancer cell line; [3])	IC50 [1]
	COc1ccc(/C=C\c2cc(OC)c(OC)c(OC)c2)cc1OP(=O)([O-])[O-].[Na+].[Na+] [CA4-P, combretastatin A4 disodium phosphate, reference compound]	effectively inhibited				
	COc1ccc(-c2oc3c(O)c(OC)ccc3c2C(=O)c2cc(OC)c(OC)c(OC)c2)cc1 [Entry 4, reference compound]		1500 ± 400 nM	1 to 2 nM		
	COc1ccc(-c2oc3c(O)c(OC)ccc3c2C(=O)c2cc(OC)c(OC)c(OC)c2)cc1O [Entry 5, reference compound]		< 4000 nM	3.9 nM	4.1 nM	
	COc1ccc2c(C(=O)c3cc(OC)c(OC)c(OC)c3)coc2c1 [Entry 6, reference compound]		1600 ± 200 nM	60 nM	50 nM	
	COc1ccc2c(C(=O)c3cc(OC)c(OC)c(OC)c3)c(-c3ccc(OC)nc3)oc2c1 [Entry 11, 2-(6-Methoxy-pyridin-3-yl)-3-(3,4,5-trimethoxybenzoyl)-6-methoxy-benzofuran]		< 4000 nM	70 nM	72 nM	10 to 100 nM
	COc1ccc2c(C(=O)c3cc(OC)c(OC)c(OC)c3)c(-c3cnn(C)c3)oc2c1 [Entry 12, 6-Methoxy-2-(1-methyl-1H-pyrazol-4-yl)-3-(3,4,5-trimethoxybenzoyl)benzo[b]furan]		1200 ± 40 nM	3.9 nM	4 nM	1 to 10 nM
	COc1cc(C(=O)c2c(-c3cnn(C)c3)oc3c(O)c(OC)ccc23)cc(OC)c1OC [Entry 14, 2-(4-N-Methylpyrazolyl)-3-(3,4,5-trimethoxybenzoyl)-6-methoxy-7-hydroxy-benzofuran]		1300 ± 70 nM			0.1 to 1 nM
	COc1cc(C(=O)c2c(-c3cnn(C)c3)oc3c(N)c(OC)ccc23)cc(OC)c1OC [Entry 21, 7-Amino-6-methoxy-2-(1-methyl-1H-pyrazol-4-yl)-3-(3,4,5-trimethoxybenzoyl)benzo[b]furan]		1500 ± 100 nM	< 1 nM	1.2 nM	1 to 10 nM
	COc1cc(C(=O)c2c(-c3cnn(C)c3)oc3c(OP(=O)([O-])[O-])c(OC)ccc23)cc(OC)c1OC.[Na+].[Na+] [Entry 23, 2-(4-N-methylpyrazolyl)-3-(3,4,5-trimethoxybenzoyl)-6-methoxy-7-O-disodiumphosphate-benzofuran]	effectively inhibited				
	COc1cc(C(=O)c2c(-c3ccco3)oc3c(O)c(OC)ccc23)cc(OC)c1OC [Entry 36, 2-(2-furanyl)-7-hydroxy-6-methoxy-3-(3,4,5-trimethoxybenzoyl)benzo[b]furan]		8700 ± 800 nM			1 to 10 nM
	COc1cc(C(=O)c2c(-c3nccs3)oc3c(O)c(OC)ccc23)cc(OC)c1OC [Entry 44, 7-Hydroxy-2-(2-thiazolyl)-3-(3,4,5-trimethoxybenzoyl)-6-methoxy-benzo[b]furan]		2200 ± 400 nM	0.37 nM	0.32 nM	0.1 to 1 nM
	COc1ccc2c(C(=O)c3cc(OC)c(OC)c(OC)c3)c(N3CCN(C)CC3)oc2c1 [Entry 46, 2-(4-N-Methylpiperazino)-3-(3,4,5-trimethoxybenzoyl)-6-methoxy-benzo[b]furan]			200 nM	230 nM	100 to 1000 nM
	COc1ccc2c(C(=O)c3cc(OC)c(OC)c(OC)c3)c(-c3ccco3)oc2c1 [Entry 52, 2-(2-Furyl)-6-methoxy-3-(3,4,5-trimethoxybenzoyl)benzo[b]furan]			6.9 nM	7.9 nM	1 to 10 nM
	COc1cc(C(=O)c2c(-c3cnn(CC(N)=O)c3)oc3c(F)c(OC)ccc23)cc(OC)c1OC [Entry 53, 2-{4-[7-Fluoro-6-methoxy-3-(3,4,5-trimethoxybenzoyl)benzofuran-2-yl]-1H-pyrazol-1-yl}acetamide]			7.8 nM	8.1 nM	0.1 to 1 nM
	COc1cc(Sc2c(-c3cnn(C)c3)oc3c(N)c(OC)ccc23)cc(OC)c1OC [Entry 54, 7-Amino-6-methoxy-2-(1-methyl-1H-pyrazol-4-yl)-3-(3,4,5-trimethoxyphenylthio)benzo[b]furan]			0.1 to 1 nM		1 to 10 nM
	COc1ccc2c(/C(=N/O)c3cc(OC)c(OC)c(OC)c3)c(-c3cnn(C)c3)oc2c1 [Entry 55, (E/Z)-6-methoxy-2-(1-methyl-1H-pyrazol-4-yl)-3-(3,4,5-trimethoxybenzoyl)benzo[b]furan oxime]			100 to 1000 nM		100 to 1000 nM
	COc1ccc2c(/C(=N/Nc3ccc([N+](=O)[O-])cc3[N+](=O)[O-])c3cc(OC)c(OC)c(OC)c3)c(-c3cnn(C)c3)oc2c1 [Entry 56, (E/Z)-6-Methoxy-2-(1-methyl-1H-pyrazol-4-yl)-3-(3,4,5-trimethoxybenzoyl)benzo[b]furan 2,4-dinitrophenylhydrazone]			> 1000 nM		100 to 1000 nM
	COc1cc(C(=O)c2c(-c3nn[nH]n3)oc3c(O)c(OC)ccc23)cc(OC)c1OC [Entry 57, 7-Hydoxy-6-methoxy-2-(2H-tetrazol-5-yl)-3-(3,4,5-trimethoxybenzoyl)-benzo[b]furan]			10 to 100 nM		10 to 100 nM
	COc1cc(C(=O)c2c(-c3c[nH]nn3)oc3c(O)c(OC)ccc23)cc(OC)c1OC [Entry 58, 17-Hydroxy-6-methoxy-2-(2H-[1,2,3]triazol-4-yl)-3-(3,4,5-trimethoxybenzoyl)benzo[b]furan]			1 to 10 nM		1 to 10 nM
1 to 10 nM	COc1cc(C(=O)c2c(-c3cncn3C)oc3c(O)c(OC)ccc23)cc(OC)c1OC [Entry 59, 7-Hydroxy-6-methoxy-2-(3-methyl-3H-imidazol-4-yl)-3-(3,4,5-trimethoxybenzoyl)-benzo[b]furan]					1 to 10 nM
